Measured values published in article PMC12281142, “A potent phenylalkylamine disrupts mycobacterial membrane bioenergetics and augments bactericidal activity of bedaquiline” (iScience, 2025).
Values after ≈ are worked out from the molar mass of the structure shown. Values joined by “and” are separate entries in the source; they are usually repeats but may differ in a detail not shown here. Equal values may be shown once. Read-outs that look alike come from different tables or passages of the source.

What was measured:
M. bovis BCG [1] = experiment: microbe, parasite or virus in culture; assay type: cell-based, Mycobacterium bovis BCG; conditions: Mycobacterium tuberculosis variant bovis BCG, BCG
M. bovis BCG [2] = assay type: cell-based, Mycobacterium bovis BCG
Mab abscessus = experiment: Time-kill kinetics, Mab abscessus; assay type: cell-based, Mycobacterium abscessus subsp. abscessus; conditions: BDQ alone 4x to 32x MIC90 (0.84–6.7 μg/mL)
Mab abscessus ATCC 19977 = experiment: MIC against Mab abscessus ATCC 19977; assay type: cell-based, Mycobacterium abscessus subsp. abscessus; conditions: Mycobacteroides abscessus; for MIC50: ATCC19977, 72 h, 3 days
M. bovis BCG [3] = assay type: cell-based, Mycobacterium bovis BCG; conditions: 15 μM or 8 μg/mL, equivalent to 230x MIC50
M. bovis BCG [4] = assay type: cell-based, Mycobacterium bovis BCG; conditions: 2x MIC90BCG, 6 h time point, cultures still viable
[5] = tested on: Mab bolletii CCUG 50184-T; experiment: MIC against Mab bolletii CCUG 50184-T; assay type: cell-based, Mycobacterium abscessus subsp. bolletii; conditions: Mycobacteroides abscessus; for MIC50: CCUG50184, 72 h, 3 days
Vero E6 = experiment: Cytotoxicity in Vero E6 cells; assay type: cell-based, African green monkey; conditions: Chlorocebus sabaeus, Vero C1008, 48 h, growth suppressed by 50% vs untreated
Description: (§1) To each well in a 96-well plate, 50,000 cells in 100 μL media were seeded. Vero E6 and HepG2 cells were incubated overnight in DMEM for cell adherence at 37°C and 5% CO2. The media was removed from the wells and 100 μL solution made up of fresh DMEM media (99 μL) and the test compound (1 μL from a DMSO stock solution that was […] more concentrated than the final concentration in the well) was then added to each well. DMSO content of each well was consistently kept at 0.5 %v/v. Treated plates were incubated for 48 h (5% CO2, 37°C), after which 10 μL of Celltitre 96 Aqueous One Solution was added to each well, without removal of media, and incubated for a further 3 h. Subsequently, absorbance readings were taken at 490 nm on a Tecan GENios Microplate Reader.
(§2) Cell viability was determined from the expression: Cellviability(%)={[Absorbance(cells+cpd)−Absorbance(cpd)]/[Absorbance(cells+vc)−Absorbance(vc)]}×100% where Absorbance (cells + cpd) = absorbance of wells containing cells and test compound in vehicle (media +0.5% DMSO); Absorbance (cpd) = absorbance of wells containing test compound in vehicle without cells (compound control); Absorbance (cells + vc) = absorbance of wells containing cells in vehicle (vc) only (untreated cells); Absorbance (vc) = absorbance of wells containing vehicle without cells (vehicle control). The percentage viability readings were plotted against log(concentration) on GraphPad Prism (Version 7.0, San Diego, CA) to give a sigmoidal curve, from which IC50, defined as the concentration of the compound that reduced cell viability by 50%, was obtained. At least 3 separate determinations were carried out.

Mtb H37Rv = experiment: MIC by broth microdilution against Mtb H37Rv; assay type: cell-based, Mycobacterium tuberculosis; conditions: Mycobacterium tuberculosis, H37RV
[6] = tested on: Mab massiliense CCUG 48898-T; experiment: MIC against Mab massiliense CCUG 48898-T; assay type: cell-based, Mycobacterium abscessus subsp. massiliense; conditions: Mycobacteroides abscessus; for MIC50: CCUG48898, 72 h, 3 days
HepG2 = experiment: Cytotoxicity in HepG2 cells; assay type: cell-based, human; conditions: Homo sapiens, HepG2; 48 h, growth suppressed by 50% vs untreated
Description: as §1, §2

Mab complex = experiment: MIC against Mab complex (summary over the 3 subspecies); assay type: cell-based, Mycobacterium abscessus; conditions: Mycobacteroides abscessus; range over subspecies
cat papillary muscle = conditions: cited from earlier work
[7] = tested on: nonreplicating M. bovis BCG; assay type: cell-based, Mycobacterium bovis BCG; conditions: 4x MIC90BCG, 5 days, Wayne model
mycobacterial growth = conditions: cited from earlier work
[8] = M. bovis BCG, broth dilution, growth reduced by 50% vs untreated
[9] = M. bovis BCG, broth dilution, growth reduced by 90% vs untreated
[10] = read-out: MIC90 BCG, M. bovis BCG
[11] = ATCC19977, Mab abscessus, read-out: MIC90 abscessus
[12] = 7H9 medium (first value of cell)
[13] = CA-MHB medium (second value of cell)

Question: Which results are given for `COc1nc2ccc(Br)cc2cc1[C@@H](c1ccccc1)[C@@](O)(CCN(C)C)c1cccc2ccccc12` [BDQ, bedaquiline]?
Answer: MIC50 (M. bovis BCG [1]; [8]): 0.065 µM; MIC90 (M. bovis BCG [1]; [9]): 0.25 µM; MIC50 (M. bovis BCG [1]; read-out: MIC50 BCG): 0.036 µg/mL; MIC90 (M. bovis BCG [1]; [10]): 0.14 µg/mL; reduction in CFU (M. bovis BCG [2]; BDQ alone 4x MIC90BCG (0.56 μg/mL), 28-day time point): 10 fold; bactericidal activity (Mab abscessus): none to be bactericidal; MIC90 (Mab abscessus ATCC 19977; [11]): 0.37 µM and 0.21 µg/mL; oxygen consumption rate (M. bovis BCG [3]): sharp increase in OCR

Question: Which MIC50 (M. bovis BCG [1]; 120 h, read-out: MIC50 BCG With Glycerol, 7H9 broth with glycerol, 5 days) does the source give for `COc1ccc(CCN(C)CCCC(C#N)(c2ccc(OC)c(OC)c2)C(C)C)cc1OC` (centres unmarked) [VP, verapamil, reference compound] here?
Answer: 210 µM

Question: And the MIC50 (M. bovis BCG [1]; 120 h, read-out: MIC50 BCG Without Glycerol, 7H9 broth without glycerol, 5 days)?
Answer: 450 µM

Question: And the MIC50 (M. bovis BCG [1]; [8])?
Answer: 210 µM

Question: And the MIC90 (M. bovis BCG [1]; [9])?
Answer: 550 µM

Question: And the MIC50 (M. bovis BCG [1]; read-out: MIC50 BCG, 7H9 with glycerol)?
Answer: 96 µg/mL

Question: What about the MIC50 (M. bovis BCG [1]; read-out: MIC50 BCG, 7H9 without glycerol) of the same molecule?
Answer: 205 µg/mL

Question: What about the MIC90 (M. bovis BCG [1]; read-out: MIC90 (Table S1), M. bovis BCG, broth dilution) of the same molecule?
Answer: 550 µM

Question: And the MIC90 (M. bovis BCG [1]; [10])?
Answer: 250 µg/mL

Question: What about the membrane depolarization (M. bovis BCG [4]) of the same molecule?
Answer: depolarization was evident

Question: And the MIC90 ([5]; CCUG50184, 7H9 broth (first value))?
Answer: 2200 µM (≈ 1000 µg/mL)

Question: What about the MIC50 [5, 12] of the same molecule?
Answer: 1450 µM (≈ 659 µg/mL)

Question: And the MIC50 [5, 13]?
Answer: 1250 µM (≈ 568 µg/mL)

Question: And the MIC90 ([5]; CCUG50184, camH broth (second value))?
Answer: > 2500 µM

Question: And the “time to reduce the CFU count to the detection limit” value (M. bovis BCG [2]; 2XMIC90BCG (1.1 mM, 500 μg/mL))?
Answer: 14 days

Question: And the IC50 (Vero E6)?
Answer: 543 µM

Question: What about the MIC50 (Mtb H37Rv; 120 h, read-out: MIC50 Mtb H37Rv) of the same molecule?
Answer: 241 µM

Question: What about the MIC90 (Mtb H37Rv; 120 h, second value of cell MIC50/MIC90, incubation 5 days, read-out: MIC90 Mtb H37Rv) of the same molecule?
Answer: 540 µM

Question: What about the MIC50 (Mtb H37Rv; read-out: MIC50 Mtb) of the same molecule?
Answer: 110 µg/mL

Question: And the MIC90 (Mtb H37Rv; read-out: MIC90 Mtb)?
Answer: 246 µg/mL

Question: What about the MIC90 ([6]; CCUG48898, 7H9 broth (first value)) of the same molecule?
Answer: 2250 µM (≈ 1020 µg/mL)

Question: And the MIC50 [6, 12]?
Answer: 1100 µM (≈ 500 µg/mL)

Question: And the MIC50 [6, 13]?
Answer: 1150 µM (≈ 523 µg/mL)

Question: And the MIC90 ([6]; CCUG48898, camH broth (second value))?
Answer: > 2500 µM

Question: What about the IC50 (HepG2) of the same molecule?
Answer: 504 µM

Question: And the MIC50 (Mab complex)?
Answer: 500 to 564 µg/mL (≈ 1100 to 1240 µM)

Question: What about the “ED50 (concentration to reduce maximal contractility of the papillary muscle by 50%)” value (cat papillary muscle) of the same molecule?
Answer: 3.5 µM

Question: And the “kill of hypoxic M. bovis BCG” value [7]?
Answer: 10^2 fold

Question: And the MIC90 (Mab abscessus ATCC 19977; ATCC19977, 7H9 broth (first value), read-out: MIC90 Mab abscessus ATCC 19977)?
Answer: 2400 µM (≈ 1090 µg/mL)

Question: And the MIC50 (Mab abscessus ATCC 19977; [12])?
Answer: 1290 µM (≈ 586 µg/mL)

Question: And the MIC50 (Mab abscessus ATCC 19977; [13])?
Answer: 1200 µM (≈ 546 µg/mL)

Question: What about the MIC90 (Mab abscessus ATCC 19977; [11]) of the same molecule?
Answer: 2400 µM and 1100 µg/mL

Question: And the MIC90 (Mab abscessus ATCC 19977; ATCC19977, camH broth (second value), read-out: MIC90 Mab abscessus ATCC 19977)?
Answer: > 2500 µM

Question: And the “concentration to inhibit mycobacterial growth” value (mycobacterial growth)?
Answer: ~500 μM and ~227 μg/mL
